Measured values reported in paper PMC4038554, “Human CD4^+ T Cell Responses to the Dog Major Allergen Can f 1 and Its Human Homologue Tear Lipocalin Resemble Each Other” (PLoS ONE, 2014).

Key:
Assay in all cases: HLA class II peptide-binding assay (competitive ELISA)
DRB1*1101 = DRB1*1101 (Homo sapiens, UniProt P01903+P01911, A100R/A169T/A87E/I96F/K41T/L162R/M171V/P40S/Q125H/Q178H/Q39Y/Q99D/R42S/S66Y/T262R/V115G/W38E); conditions: immunopurified HLA, reference peptide IC50 50 nM, ratio ≤20 high affinity, 20–200 moderate affinity
DRB4 = system: DRB4; set-up: species or system human; conditions: DRB4; competitive ELISA, immunopurified HLA; reference peptide IC50 8 nM; ratio ≤20 high affinity, 20–200 moderate affinity
DRB1*0401 = DRB1*0401 (Homo sapiens, UniProt P01903+P01911, A100K/A169T/F76Y/I96L/K127E/L162R/M171V/N62H/P40V/Q125Y/R42H/S133A/S149N/S66Y/V115G/V209L/W38E); conditions: immunopurified HLA, reference peptide IC50 8 nM, ratio ≤20 high affinity, 20–200 moderate affinity
DRB3 = system: DRB3; set-up: species or system human; conditions: DRB3; competitive ELISA, immunopurified HLA; reference peptide IC50 60 nM; ratio ≤20 high affinity, 20–200 moderate affinity
DRB5 = system: DRB5; set-up: species or system human; conditions: DRB5; competitive ELISA, immunopurified HLA; reference peptide IC50 7 nM; ratio ≤20 high affinity, 20–200 moderate affinity
DRB1*1301 = DRB1*1301 (Homo sapiens, UniProt P01903+P01911, A100E/A169T/K41T/L162R/M171V/P40S/Q125H/Q178H/Q39Y/Q99D/R42S/S66N/T262R/W38E/Y61H); conditions: immunopurified HLA, reference peptide IC50 208 nM, ratio ≤20 high affinity, 20–200 moderate affinity
DRB1*1501 = DRB1*1501 (Homo sapiens, UniProt P01903+P01911); conditions: immunopurified HLA, reference peptide IC50 775 nM, ratio ≤20 high affinity, 20–200 moderate affinity
DRB1*0101 = DRB1*0101 (Homo sapiens, UniProt P01903+P01911, A100R/D57E/F55L/F60I/F76Y/I96L/L162R/M171V/P40L/Q125E/R42F/V115G/Y59C); conditions: immunopurified HLA, reference peptide IC50 3 nM, ratio ≤20 high affinity, 20–200 moderate affinity
DRB1*0301 = DRB1*0301 (Homo sapiens, UniProt P01903+P01911, A100K/A102G/A103R/A169T/F55Y/I96L/K41T/L162R/M171V/P40S/Q125H/Q178H/Q39Y/R42S/S66N/T106N/T262R/W38E/Y61H); conditions: immunopurified HLA, reference peptide IC50 423 nM, ratio ≤20 high affinity, 20–200 moderate affinity
DRB1*0701 = DRB1*0701 (Homo sapiens, UniProt P01903+P01911, A100R/A102G/A103Q/D57E/D86V/E43K/F76Y/K127E/L162R/M171V/P40G/Q125H/Q99D/R33Q/R42Y/R54Q/S133A/S66F/T210M/V115G/Y107V/Y59L/Y89S); conditions: immunopurified HLA, reference peptide IC50 5 nM, ratio ≤20 high affinity, 20–200 moderate affinity

Sequence | relative binding ratio (IC50 of the test peptide divided by IC50 of the reference peptide) (DRB1*1101) | relative binding ratio (IC50 of the test peptide divided by IC50 of the reference peptide) (DRB4) | relative binding ratio (IC50 of the test peptide divided by IC50 of the reference peptide) (DRB1*0401) | relative binding ratio (IC50 of the test peptide divided by IC50 of the reference peptide) (DRB3) | relative binding ratio (IC50 of the test peptide divided by IC50 of the reference peptide) (DRB5) | relative binding ratio (IC50 of the test peptide divided by IC50 of the reference peptide) (DRB1*1301) | relative binding ratio (IC50 of the test peptide divided by IC50 of the reference peptide) (DRB1*1501) | relative binding ratio (IC50 of the test peptide divided by IC50 of the reference peptide) (DRB1*0101) | relative binding ratio (IC50 of the test peptide divided by IC50 of the reference peptide) (DRB1*0301) | relative binding ratio (IC50 of the test peptide divided by IC50 of the reference peptide) (DRB1*0701)
EILELAQSETCSPGGQ [pC9, Can f 1 peptide p141–156] | > 200 | > 1 179 | 113 | > 167 | > 1 443 | > 481 | > 13 | 54 | > 236 | 230
ALEDFREFSRAKGLNQ [pC8, Can f 1 peptide p125–140] | 2 | > 1 179 | 189 | > 167 | 101 | 245 | > 13 | 155 | > 236 | 71
MNLESVTPMTLTTLEGGNL [pTL2, Tear lipocalin peptide p31–49] | > 200 | > 1 179 | 436 | > 167 | 645 | > 481 | > 13 | 15 | > 236 | 55

Next, values leading:

relative binding ratio (IC50 of the test peptide divided by IC50 of the reference peptide) (DRB1*1101) | relative binding ratio (IC50 of the test peptide divided by IC50 of the reference peptide) (DRB4) | relative binding ratio (IC50 of the test peptide divided by IC50 of the reference peptide) (DRB1*0401) | relative binding ratio (IC50 of the test peptide divided by IC50 of the reference peptide) (DRB3) | relative binding ratio (IC50 of the test peptide divided by IC50 of the reference peptide) (DRB5) | relative binding ratio (IC50 of the test peptide divided by IC50 of the reference peptide) (DRB1*1301) | relative binding ratio (IC50 of the test peptide divided by IC50 of the reference peptide) (DRB1*1501) | relative binding ratio (IC50 of the test peptide divided by IC50 of the reference peptide) (DRB1*0101) | relative binding ratio (IC50 of the test peptide divided by IC50 of the reference peptide) (DRB1*0301) | relative binding ratio (IC50 of the test peptide divided by IC50 of the reference peptide) (DRB1*0701) | Sequence
> 200 | > 1 179 | > 1 260 | > 167 | > 1 443 | > 481 | > 13 | 569 | > 236 | > 1 874 | ESILIPRQSETCSPGSD [pTL9, Tear lipocalin peptide p142–158]
> 200 | > 1 179 | 85 | > 167 | 22 | > 481 | > 13 | 3 | > 236 | 1 440 | ALEDFEKAAGARGLST [pTL8, Tear lipocalin peptide p126–141]
